Like-named read-outs stand apart in the source and are kept apart here.

Data set [1] concerns circulatory insufficiency model of rats induced by injection of lauric-acid into their femoral artery. Put plainly: Circulatory insufficiency model induced by lauric-acid in rats (lesion index). The data set is classed as in vivo, rat. On the set-up: key: summed toe lesion grades, +5 if heel reached; max 25 points. The settings on record: male Wistar rats, average, max 25 points; for Lesion Index after 10 days: 30 mg/kg multiple oral dosing (1 h prior to and 3 h after lauric-acid, then twice daily for 9 days), 10 days after lauric-acid injection; for Lesion Index after 3 days: 30 mg/kg multiple oral dosing (1 h prior to and 3 h after lauric-acid, then twice daily), 3 days after lauric-acid injection. On the procedure: We performed this test in order to evaluate the pharmacological effect of the compounds of the present invention using a circulatory insufficiency model of rats induced by injection of lauric-acid into their femoral artery.
13-week-old male Wistar rats (body weight is 280 to 316 g), 8 rats per one group, were used. The rats were held in a supine position under anesthesia due to administration of 40 mg/kg of sodium pentobarbital by intraperitoneal injection. Then, the right femoral area was incised, thereby injecting 0.15 mL of 10 mg/mL lauric-acid solution into the femoral artery in order to induce lower limb gangrene caused by the peripheral vascular disorder. A few drops of instant adhesive (Aron-alpha; registered trademark) were used to stop bleeding, followed by topical application of antibiotics (potassium penicillin G solution) to prevent infection, and the incision site was then sutured.
The suspension was administered, by means of multiple oral dosing, 1 hour prior to and 3 hours after injection of lauric-acid and twice daily (at 10:00 and 17:00) for the following 9 days, at the dose of 30 mg/kg for each compound. […] The suspension was administered orally 3 hours prior to injection of lauric-acid at the dose of 300 mg/kg.
The extent of lesions was evaluated 3 days and 10 days after injection of lauric acid by the following criteria:
The lesion of each toe was graded and the total points of 5 toes were use as a lesion index, wherein 5 points were further added when the lesion reached the heel (i.e. the maximum lesion index was 25 points).
The shown number refers to the average value of the lesion index obtained from the evaluation.

The nature of data set [2]: Stability test in acidic or basic solution (half-life by liquid chromatography). Format: physicochemical. The settings on record: time to 50% residual rate. On the procedure:
The test compounds were dissolved in an acidic solution (phosphate buffer (pH3.4)) and in a basic solution (phosphate buffer (pH7.3)) at the concentration of 1 mmoL/L. Immediately after they were dissolved, each solution was analyzed with liquid chromatography using an acidic solution (phosphate buffer (pH3.4)) or basic solution (phosphate buffer (pH7.3)) as an eluent. The peak area of the test compounds was measured as the initial value. Furthermore, a time-course analysis with liquid chromatograpy was conducted to measure the peak area at each time point. The solution containing the test compound was kept in an incubator at 37° C. Based on the measured peak area of the test compounds, the percentage (%) of the peak area at each measurement time point was calculated, taking the peak area of the initial value as 100(%). The half-life (the time to show a 50% residual rate of the test compounds) of the test compounds was further calculated, and its stability was evaluated based on the half-life.

For the molecule `CCCCOc1c(O)c2ccc(O)cc2oc1=O` [Compound 121], in data set [1], the “Lesion Index after 10 days” value is reported as 7.3 and the “Lesion Index after 3 days” value is 2.8.
For `CCOc1c(O)c2ccc(O)cc2oc1=O` [Compound 118], in data set [1], the “Lesion Index after 10 days” value is 8.3 and the “Lesion Index after 3 days” value was found to be 2.4.
The like results for `CCCCOc1c(O)c2cccc(O)c2oc1=O` [Compound 179] were, in that order, 8.4 and 3.6.
The like results for `CC(C)CCCOc1c(O)c2ccc(OCCO)cc2oc1=O` [Compound 449] were, in that order, 7.3 and 2.8.
In the case of `CCCCOc1c(O)c2c(OCCCO)cccc2oc1=O` [Compound 261], in data set [1], the “Lesion Index after 10 days” value is 7.6 and the “Lesion Index after 3 days” value turned out to be 3.7.
As to `CCCCCCCCCCOc1c(O)c2ccc(OCC(O)CO)cc2oc1=O` (centres unmarked) [Compound 485], in data set [1], the “Lesion Index after 10 days” value is 7.9 and the “Lesion Index after 3 days” value worked out at 2.8.
The like results for `CCCCC(CC)Oc1c(O)c2ccc(OCCCCO)cc2oc1=O` (centres unmarked) [Compound 477] were, in that order, 7.7 and 2.9.
`CCCCCCCCOc1c(O)c2ccc(OCCCO)cc2oc1=O` [Compound 468]: in data set [1], the “Lesion Index after 10 days” value is given as 7.8 and the “Lesion Index after 3 days” value is recorded as 2.8.
Regarding `CCCCCCOc1c(O)c2cccc(OCCCC)c2oc1=O` [Compound 214], in data set [1], the “Lesion Index after 10 days” value was determined as 7.9 and the “Lesion Index after 3 days” value came out at 3.5.
The like results for `CCCCC(CC)Oc1c(O)c2c(OCCO)cccc2oc1=O` (centres unmarked) [Compound 244] were, in that order, 7.4 and 3.5.
Consider `CC(C)=CCCC(C)=CCOc1c(O)c2ccc(O)cc2oc1=O` [Compound 141], for which, in data set [1], the “Lesion Index after 10 days” value worked out at 7.8 and the “Lesion Index after 3 days” value came out at 2.6.
The like results for `CCCCCCCCOc1c(O)c2cc(OCCCC(=O)O)ccc2oc1=O` [Compound 429] were, in that order, 7.9 and 2.2.
The like results for `CCCCCCC=COc1c(O)c2cccc(O)c2oc1=O` [Compound 196] were, in that order, 7.4 and 3.3.
The like results for `CC(C)=CCCC(C)=CCOc1ccc2c(O)c(OCC=C(C)CCC=C(C)C)c(=O)oc2c1` [Compound 174] were, in that order, 7.5 and 2.7.
As to `CCCCCCCCOc1c(O)c2c(OCC(O)CO)cccc2oc1=O` (centres unmarked) [Compound 280], in data set [1], the “Lesion Index after 10 days” value turned out to be 7.9 and the “Lesion Index after 3 days” value is 2.7.
`CCCCCCCCOc1c(O)c2ccc(O)cc2oc1=O` [Compound 131]: in data set [1], the “Lesion Index after 10 days” value is reported as 7.5 and the “Lesion Index after 3 days” value is reported as 3.0.
The like results for `CCCCCCCCOc1c(O)c2c(OCCCCC(=O)O)cccc2oc1=O` [Compound 333] were, in that order, 7.4 and 3.0.
The like results for `CCCCCCOc1c(O)c2cc(OCCCC)ccc2oc1=O` [Compound 98] were, in that order, 8.4 and 3.0.
The like results for `CCCCCCOc1c(O)c2c(O)cccc2oc1=O` [Compound 9] were, in that order, 7.8 and 2.5.
Consider `CCCCC(CC)Oc1c(O)c2ccc(OCC(=O)O)cc2oc1=O` (centres unmarked) [Compound 506], for which, in data set [1], the “Lesion Index after 10 days” value is 7.3 and the “Lesion Index after 3 days” value is given as 2.7.
The like results for `CCC(CC)Oc1c(O)c2ccc(O)cc2oc1=O` [Compound 124] were, in that order, 8.3 and 3.0.
The like results for `CC(C)CCCOc1c(O)c2cccc(OCCO)c2oc1=O` [Compound 551] were, in that order, 7.8 and 2.5.
The like results for `CCCCCOc1c(O)c2ccc(O)cc2oc1=O` [Compound 123] were, in that order, 7.9 and 2.6.
Consider `CC(C)Oc1c(O)c2ccc(O)cc2oc1=O` [Compound 120], for which, in data set [1], the “Lesion Index after 10 days” value worked out at 8.0 and the “Lesion Index after 3 days” value turned out to be 2.3.
The like results for `CCCOc1c(O)c2ccc(O)cc2oc1=O` [Compound 119] were, in that order, 7.1 and 2.5.
The like results for `CCCCOc1c(O)c2c(OCC(=O)O)cccc2oc1=O` [Compound 295] were, in that order, 7.2 and 3.0.
On to `CC(C)CCCOc1c(O)c2cc(OCCO)ccc2oc1=O` [Compound 347], for which, in data set [1], the “Lesion Index after 10 days” value stood at 8.1 and the “Lesion Index after 3 days” value was 2.3.
What is called half-life is the time in which the quantity being followed falls by half. For the molecule `O=c1oc2ccc(-c3ccccc3)cc2c(O)c1O` [C, reference compound], the half-life at 1 mmoL/L in data set [2] (phosphate buffer pH 3.4, 37° C., read-out: Half-life, pH 3.4 solution (converted)) is 35 h; in data set [2] (phosphate buffer pH 7.3, 37° C., read-out: Half-life, pH 7.3 solution (converted)), 65 h.
Take `CCCCCCOc1c(O)c2cccc(OCCO)c2oc1=O` [Compound 547]: in data set [1], the “Lesion Index after 10 days” value stood at 7.2 and the “Lesion Index after 3 days” value is 3.0.
Take `CCCCCCCCOc1c(O)c2cccc(OCCCC(=O)O)c2oc1=O` [Compound 633]: in data set [1], the “Lesion Index after 10 days” value is reported as 7.4 and the “Lesion Index after 3 days” value is on record as 2.6.
Regarding `CCCCCCCCOc1c(O)c2ccc(OCCC(O)CO)cc2oc1=O` (centres unmarked) [Compound 491], in data set [1], the “Lesion Index after 10 days” value is 7.4 and the “Lesion Index after 3 days” value came out at 2.9.
For `CCCCCCOc1c(O)c2cc(O)ccc2oc1=O` [Compound 67], in data set [1], the “Lesion Index after 10 days” value stood at 7.5 and the “Lesion Index after 3 days” value is recorded as 2.8.
Turning to `CCCCCCOc1c(O)c2cc(OCCC(O)CO)ccc2oc1=O` (centres unmarked) [Compound 388], in data set [1], the “Lesion Index after 10 days” value is given as 7.5 and the “Lesion Index after 3 days” value was found to be 2.9.
The like results for `CCCCOc1c(O)c2c(OCCO)cccc2oc1=O` [Compound 237] were, in that order, 7.9 and 3.4.

For the origin of these results see patent US20110021621A1, “Drug for treating circulatory insufficiency” (ACTIVUS PHARMA CO., LTD., priority 2005, published 2011).
